From ChEMBL document CHEMBL1201862, “PubChem BioAssay data set” (2004) come the findings set out here.

Activity calls are given as the source filed them.

What all share (assay type): functional
The target in one experiment is T1, Protein RecA (Mycobacterium tuberculosis, UniProt P9WHJ3).
T1 sequence (P9WHJ3 whole entry): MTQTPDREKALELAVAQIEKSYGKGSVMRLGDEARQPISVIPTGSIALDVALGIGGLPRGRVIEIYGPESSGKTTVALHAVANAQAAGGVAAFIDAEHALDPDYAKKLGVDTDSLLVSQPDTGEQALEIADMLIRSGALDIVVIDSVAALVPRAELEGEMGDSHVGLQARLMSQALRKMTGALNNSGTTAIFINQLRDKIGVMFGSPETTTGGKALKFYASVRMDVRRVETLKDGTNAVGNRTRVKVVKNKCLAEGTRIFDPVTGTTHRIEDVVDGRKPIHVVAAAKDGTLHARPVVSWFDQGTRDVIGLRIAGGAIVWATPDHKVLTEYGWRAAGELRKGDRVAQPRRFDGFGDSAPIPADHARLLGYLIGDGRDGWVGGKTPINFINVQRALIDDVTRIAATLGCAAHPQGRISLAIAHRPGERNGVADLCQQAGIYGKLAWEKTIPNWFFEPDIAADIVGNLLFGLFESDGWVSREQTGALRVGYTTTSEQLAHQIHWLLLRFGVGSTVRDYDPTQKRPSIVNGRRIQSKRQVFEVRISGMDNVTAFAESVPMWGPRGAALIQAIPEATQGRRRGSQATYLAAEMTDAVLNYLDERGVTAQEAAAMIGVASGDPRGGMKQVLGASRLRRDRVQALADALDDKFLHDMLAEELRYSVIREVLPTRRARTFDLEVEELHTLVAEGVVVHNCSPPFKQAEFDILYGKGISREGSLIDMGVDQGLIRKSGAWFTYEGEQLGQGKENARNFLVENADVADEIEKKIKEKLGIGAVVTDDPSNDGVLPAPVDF
In words: Fluorescence Cell-Free Homogeneous Dose Retest to Identify Inhibitors of RecA-Intein Splicing Activity. [Related pubchem assays (depositor defined):AID2097, AID2223, AID489010, AID492950].

Another experiment concerns Vero. Put plainly: viability of Vero cells under compound – cytotoxicity control for flavivirus capping enzyme inhibitors (AID 588742). As to conditions: Chlorocebus sabaeus.
The target in experiment [1] is T2, Replicative DNA helicase DnaB (Mycobacterium tuberculosis, UniProt P9WMR3).
T2 sequence (P9WMR3 whole entry): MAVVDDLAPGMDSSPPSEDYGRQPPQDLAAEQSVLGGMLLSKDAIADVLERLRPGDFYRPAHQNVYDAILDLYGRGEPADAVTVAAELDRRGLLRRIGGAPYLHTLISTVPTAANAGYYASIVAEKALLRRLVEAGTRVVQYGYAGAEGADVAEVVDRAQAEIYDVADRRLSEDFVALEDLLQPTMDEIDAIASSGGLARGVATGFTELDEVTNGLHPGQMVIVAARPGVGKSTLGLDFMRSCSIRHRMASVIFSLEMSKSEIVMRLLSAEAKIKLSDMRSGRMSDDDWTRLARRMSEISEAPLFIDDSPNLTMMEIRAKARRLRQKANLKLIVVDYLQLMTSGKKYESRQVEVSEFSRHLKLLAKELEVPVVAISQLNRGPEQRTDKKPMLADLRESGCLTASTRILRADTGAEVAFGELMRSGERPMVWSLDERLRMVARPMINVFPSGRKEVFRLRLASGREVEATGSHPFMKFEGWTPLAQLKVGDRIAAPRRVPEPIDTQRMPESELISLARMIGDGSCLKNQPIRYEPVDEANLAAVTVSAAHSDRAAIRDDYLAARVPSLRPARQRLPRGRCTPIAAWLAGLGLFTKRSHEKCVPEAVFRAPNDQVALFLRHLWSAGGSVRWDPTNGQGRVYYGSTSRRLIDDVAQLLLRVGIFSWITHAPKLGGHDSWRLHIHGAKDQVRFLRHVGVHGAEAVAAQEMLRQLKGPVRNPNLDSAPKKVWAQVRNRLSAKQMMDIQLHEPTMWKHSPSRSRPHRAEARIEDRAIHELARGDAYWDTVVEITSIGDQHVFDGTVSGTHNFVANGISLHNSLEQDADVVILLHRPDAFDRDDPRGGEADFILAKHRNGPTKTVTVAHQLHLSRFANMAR
In words: DnaB intein splicing inhibitors, dose response, biochemical, cell-free fluorescence (AID 449749).

Another experiment concerns the target Aurora kinase B (Homo sapiens, UniProt Q96GD4).
Experiment [2] has as its target Vascular endothelial growth factor receptor 2 (Homo sapiens, UniProt P35968).
Experiment [3] addresses Calcium/calmodulin-dependent protein kinase type II subunit gamma (Homo sapiens, UniProt Q13555).
For experiment [4], the target named is Serine/threonine-protein kinase Nek4 (Homo sapiens, UniProt P51957).
The target in experiment [5] is Casein kinase II subunit alpha (Homo sapiens, UniProt P68400).
Experiment [6] deals with Cyclin-dependent kinase 1 (Homo sapiens, UniProt P06493).
Experiment [7] has as its target Tyrosine-protein kinase receptor TYRO3 (Homo sapiens, UniProt Q06418).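 Further: TYRO3 value obtained as one member of a kinome-wide profiling panel.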
Experiment [8] addresses ALK tyrosine kinase receptor (Homo sapiens, UniProt Q9UM73).
The target in experiment [9] is Mitogen-activated protein kinase 8 (Homo sapiens, UniProt P45983).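 Further: value comes from one member of a kinome-wide kinase profiling panel.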
Experiment [10] has as its target Receptor-type tyrosine-protein kinase FLT3 (Homo sapiens, UniProt P36888).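 Further: FLT3 was tested as one member of a kinome-wide kinase panel.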
Experiment [11] has as its target Mitogen-activated protein kinase 13 (Homo sapiens, UniProt O15264).
Experiment [12] concerns the target Casein kinase I isoform alpha (Homo sapiens, UniProt P48729).
In experiment [13] the target is RAC-alpha serine/threonine-protein kinase (Homo sapiens, UniProt P31749).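 Further: AKT1 affinity measured as one member of a kinome-wide kinase profiling panel.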
In experiment [14] the target is Serine/threonine-protein kinase MRCK alpha (Homo sapiens, UniProt Q5VT25).
The target of the next experiment is SRSF protein kinase 1 (Homo sapiens, UniProt Q96SB4).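 Further: measured as one member of a kinome-wide kinase profiling panel.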
In experiment [15] the target is cAMP-dependent protein kinase catalytic subunit alpha (Homo sapiens, UniProt P17612).
Experiment [16] has as its target Calcium/calmodulin-dependent protein kinase type 1 (Homo sapiens, UniProt Q14012).
Experiment [17] deals with Vascular endothelial growth factor receptor 3 (Homo sapiens, UniProt P35916).
Experiment [18] has as its target Serine/threonine-protein kinase 17A (Homo sapiens, UniProt Q9UEE5).
In experiment [19] the target is RAC-gamma serine/threonine-protein kinase (Homo sapiens, UniProt Q9Y243).
RAC-gamma serine/threonine-protein kinase, sequence (Q9Y243 whole entry): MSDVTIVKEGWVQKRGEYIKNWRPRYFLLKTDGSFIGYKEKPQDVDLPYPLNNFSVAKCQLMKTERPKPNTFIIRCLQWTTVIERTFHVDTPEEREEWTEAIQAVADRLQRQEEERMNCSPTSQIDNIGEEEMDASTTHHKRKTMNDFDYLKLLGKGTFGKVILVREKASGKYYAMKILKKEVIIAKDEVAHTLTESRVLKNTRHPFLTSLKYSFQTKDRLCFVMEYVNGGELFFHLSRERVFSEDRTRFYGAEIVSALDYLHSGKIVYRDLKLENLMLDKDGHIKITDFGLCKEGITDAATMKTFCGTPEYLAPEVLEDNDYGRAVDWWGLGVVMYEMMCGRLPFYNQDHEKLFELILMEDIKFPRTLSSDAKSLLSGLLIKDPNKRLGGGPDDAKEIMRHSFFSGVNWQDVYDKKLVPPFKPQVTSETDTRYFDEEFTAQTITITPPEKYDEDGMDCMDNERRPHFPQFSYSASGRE

Aurora kinase B, sequence (Q96GD4 whole entry): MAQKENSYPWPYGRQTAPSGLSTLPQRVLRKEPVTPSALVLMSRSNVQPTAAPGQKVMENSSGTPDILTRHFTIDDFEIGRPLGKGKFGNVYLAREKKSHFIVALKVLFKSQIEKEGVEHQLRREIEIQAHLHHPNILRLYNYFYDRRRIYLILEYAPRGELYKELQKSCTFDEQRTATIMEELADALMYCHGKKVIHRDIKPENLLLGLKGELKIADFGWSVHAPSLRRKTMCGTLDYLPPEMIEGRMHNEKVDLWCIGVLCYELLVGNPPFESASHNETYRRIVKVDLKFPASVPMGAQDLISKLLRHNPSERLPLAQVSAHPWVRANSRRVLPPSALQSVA
SRSF protein kinase 1, sequence (Q96SB4 whole entry): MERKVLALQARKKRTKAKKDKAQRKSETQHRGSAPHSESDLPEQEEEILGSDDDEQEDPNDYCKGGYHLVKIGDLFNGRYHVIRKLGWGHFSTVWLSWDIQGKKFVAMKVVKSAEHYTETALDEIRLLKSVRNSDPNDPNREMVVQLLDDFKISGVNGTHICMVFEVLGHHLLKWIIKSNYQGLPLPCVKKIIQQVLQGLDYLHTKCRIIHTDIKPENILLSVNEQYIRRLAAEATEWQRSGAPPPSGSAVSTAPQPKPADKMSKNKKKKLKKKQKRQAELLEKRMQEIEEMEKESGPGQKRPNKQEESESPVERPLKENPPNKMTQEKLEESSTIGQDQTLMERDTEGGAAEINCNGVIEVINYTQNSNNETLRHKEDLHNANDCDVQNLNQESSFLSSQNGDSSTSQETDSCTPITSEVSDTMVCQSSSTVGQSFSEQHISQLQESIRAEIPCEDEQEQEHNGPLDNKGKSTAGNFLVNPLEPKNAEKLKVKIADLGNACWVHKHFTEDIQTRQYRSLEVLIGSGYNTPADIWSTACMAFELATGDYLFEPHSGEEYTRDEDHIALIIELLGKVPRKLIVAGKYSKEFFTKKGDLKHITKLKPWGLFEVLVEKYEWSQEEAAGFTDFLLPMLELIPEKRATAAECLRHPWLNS
Calcium/calmodulin-dependent protein kinase type 1, sequence (Q14012 whole entry): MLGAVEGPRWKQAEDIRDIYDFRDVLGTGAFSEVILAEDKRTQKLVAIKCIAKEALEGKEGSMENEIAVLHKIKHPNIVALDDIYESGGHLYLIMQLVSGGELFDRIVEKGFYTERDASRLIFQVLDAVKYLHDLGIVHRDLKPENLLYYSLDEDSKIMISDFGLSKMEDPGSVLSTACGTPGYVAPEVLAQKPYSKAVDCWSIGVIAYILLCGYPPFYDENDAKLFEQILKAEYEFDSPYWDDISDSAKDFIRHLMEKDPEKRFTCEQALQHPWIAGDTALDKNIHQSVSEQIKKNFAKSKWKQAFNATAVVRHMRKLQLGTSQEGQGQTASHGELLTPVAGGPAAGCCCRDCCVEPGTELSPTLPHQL
Serine/threonine-protein kinase 17A, sequence (Q9UEE5 whole entry): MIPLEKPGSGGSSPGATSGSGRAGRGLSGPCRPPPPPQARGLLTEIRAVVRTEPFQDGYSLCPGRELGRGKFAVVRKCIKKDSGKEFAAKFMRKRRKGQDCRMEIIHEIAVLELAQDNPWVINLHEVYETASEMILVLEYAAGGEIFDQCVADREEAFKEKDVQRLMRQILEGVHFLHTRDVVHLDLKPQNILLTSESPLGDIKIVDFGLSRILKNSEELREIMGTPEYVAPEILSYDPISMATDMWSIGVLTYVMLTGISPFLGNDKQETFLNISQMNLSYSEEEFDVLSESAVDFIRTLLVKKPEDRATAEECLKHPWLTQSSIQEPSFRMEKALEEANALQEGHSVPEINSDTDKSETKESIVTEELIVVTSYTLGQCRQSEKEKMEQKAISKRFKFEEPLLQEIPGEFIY
Casein kinase II subunit alpha, sequence (P68400 whole entry): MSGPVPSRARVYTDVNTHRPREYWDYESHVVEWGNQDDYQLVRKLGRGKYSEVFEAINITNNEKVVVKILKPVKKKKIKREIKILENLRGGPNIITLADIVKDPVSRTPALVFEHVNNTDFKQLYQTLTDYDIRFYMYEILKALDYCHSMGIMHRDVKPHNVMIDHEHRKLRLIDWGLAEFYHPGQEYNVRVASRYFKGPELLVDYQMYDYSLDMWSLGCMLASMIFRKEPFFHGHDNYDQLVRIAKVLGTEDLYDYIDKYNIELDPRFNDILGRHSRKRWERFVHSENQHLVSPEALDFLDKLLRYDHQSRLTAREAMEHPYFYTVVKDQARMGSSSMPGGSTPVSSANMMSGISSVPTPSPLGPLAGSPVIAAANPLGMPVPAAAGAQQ
Vascular endothelial growth factor receptor 2, sequence (P35968 whole entry): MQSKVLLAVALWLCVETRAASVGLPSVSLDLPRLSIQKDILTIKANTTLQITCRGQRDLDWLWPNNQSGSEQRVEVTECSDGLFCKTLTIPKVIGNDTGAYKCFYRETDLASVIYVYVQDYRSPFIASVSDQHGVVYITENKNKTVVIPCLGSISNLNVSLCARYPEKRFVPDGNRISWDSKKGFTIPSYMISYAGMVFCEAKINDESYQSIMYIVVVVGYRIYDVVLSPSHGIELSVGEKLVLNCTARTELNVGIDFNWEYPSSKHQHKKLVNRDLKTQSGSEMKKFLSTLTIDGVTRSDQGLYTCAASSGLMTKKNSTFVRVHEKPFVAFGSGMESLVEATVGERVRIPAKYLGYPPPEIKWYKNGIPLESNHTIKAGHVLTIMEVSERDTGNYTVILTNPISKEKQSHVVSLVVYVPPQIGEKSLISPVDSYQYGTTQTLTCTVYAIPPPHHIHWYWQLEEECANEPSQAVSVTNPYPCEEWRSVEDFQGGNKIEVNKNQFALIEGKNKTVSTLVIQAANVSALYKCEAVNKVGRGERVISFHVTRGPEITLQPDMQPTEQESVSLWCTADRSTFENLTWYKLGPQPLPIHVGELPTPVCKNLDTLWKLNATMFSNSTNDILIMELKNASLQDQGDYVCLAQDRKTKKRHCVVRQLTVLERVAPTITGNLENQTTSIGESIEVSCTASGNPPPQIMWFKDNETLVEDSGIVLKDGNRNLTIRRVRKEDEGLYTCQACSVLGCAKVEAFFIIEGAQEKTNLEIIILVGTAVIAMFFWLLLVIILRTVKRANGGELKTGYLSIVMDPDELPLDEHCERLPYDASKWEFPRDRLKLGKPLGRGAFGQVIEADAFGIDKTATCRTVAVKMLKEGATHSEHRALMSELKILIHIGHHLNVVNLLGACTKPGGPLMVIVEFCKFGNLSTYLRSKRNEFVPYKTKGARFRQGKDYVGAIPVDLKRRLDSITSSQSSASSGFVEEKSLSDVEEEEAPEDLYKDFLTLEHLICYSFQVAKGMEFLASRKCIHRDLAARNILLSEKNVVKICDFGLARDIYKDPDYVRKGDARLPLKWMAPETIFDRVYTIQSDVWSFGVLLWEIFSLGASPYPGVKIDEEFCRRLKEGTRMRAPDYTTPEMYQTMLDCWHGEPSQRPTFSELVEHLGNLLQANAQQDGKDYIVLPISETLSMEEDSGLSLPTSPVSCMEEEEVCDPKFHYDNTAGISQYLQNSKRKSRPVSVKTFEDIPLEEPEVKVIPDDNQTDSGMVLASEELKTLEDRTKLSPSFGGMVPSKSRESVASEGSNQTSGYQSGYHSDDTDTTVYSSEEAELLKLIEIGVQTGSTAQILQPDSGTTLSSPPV
Cyclin-dependent kinase 1, sequence (P06493 whole entry): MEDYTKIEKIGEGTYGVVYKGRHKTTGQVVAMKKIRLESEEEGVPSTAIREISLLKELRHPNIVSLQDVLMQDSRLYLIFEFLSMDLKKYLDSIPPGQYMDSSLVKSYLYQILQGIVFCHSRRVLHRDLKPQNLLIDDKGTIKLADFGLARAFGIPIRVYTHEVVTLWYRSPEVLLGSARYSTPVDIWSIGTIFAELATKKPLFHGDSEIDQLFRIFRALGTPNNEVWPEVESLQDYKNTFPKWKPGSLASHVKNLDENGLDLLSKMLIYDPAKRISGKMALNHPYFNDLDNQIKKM
Calcium/calmodulin-dependent protein kinase type II subunit gamma, sequence (Q13555 whole entry): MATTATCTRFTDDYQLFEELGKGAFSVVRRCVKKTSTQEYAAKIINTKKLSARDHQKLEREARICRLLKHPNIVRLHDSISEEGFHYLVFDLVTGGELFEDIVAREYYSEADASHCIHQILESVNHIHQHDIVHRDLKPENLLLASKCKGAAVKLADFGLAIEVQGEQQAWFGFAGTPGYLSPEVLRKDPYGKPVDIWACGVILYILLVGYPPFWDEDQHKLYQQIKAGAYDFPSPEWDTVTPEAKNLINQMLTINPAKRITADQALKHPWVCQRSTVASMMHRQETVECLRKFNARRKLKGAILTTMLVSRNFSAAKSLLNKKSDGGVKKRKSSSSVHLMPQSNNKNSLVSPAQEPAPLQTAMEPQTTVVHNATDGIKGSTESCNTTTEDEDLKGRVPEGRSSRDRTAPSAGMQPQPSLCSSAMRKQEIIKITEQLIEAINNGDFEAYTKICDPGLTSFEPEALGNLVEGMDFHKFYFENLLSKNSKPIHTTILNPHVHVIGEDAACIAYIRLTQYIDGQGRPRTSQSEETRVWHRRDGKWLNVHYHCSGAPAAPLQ

The EC50 is the concentration that produces a half-maximal response. One may read the CC50 as the concentration at which the toxic effect on the cells reaches its halfway point. One may read the AC50 as the concentration at which the activity in the assay is half-maximal. As for `CCc1ccc(S(=O)(=O)/N=C2\C=C(NS(=O)(=O)c3ccccc3)C(=O)c3ccccc32)cc1`, the EC50 at Protein RecA is 3.08 µM (active). For the same compound, the CC50 with Vero is > 40 µM (active). In addition, the half-maximal activity concentration (AC50) in [1] is 2.55 µM (active).
The term Ki denotes a dissociation constant, usually derived from enzyme kinetics or from competition with a known ligand. As to `Cn1cncc1C(OCc1c(-c2ccc(OC(F)(F)F)cc2)cc(C#N)c(=O)n1C)c1ccc(C#N)cc1` (stereo not drawn), the Ki at Aurora kinase B is 0.158 µM (active); in [2], > 7.94 µM (inactive); in experiment [3], > 6.31 µM (inactive); in experiment [4], > 6.31 µM (inactive); in experiment [5], > 6.31 µM (inactive); in [6], > 7.94 µM (inactive). Moreover, the Ki is > 2 µM (inactive) in experiment [7]; > 6.31 µM (inactive) in experiment [8]; > 3.16 µM (inactive) in experiment [9]; 0.631 µM (active) in [10]; > 7.94 µM (inactive) in experiment [11]; > 6.31 µM (inactive) in experiment [12]. The Ki in experiment [13] was > 7.94 µM (inactive); in [14], > 10 µM (inactive); at SRSF protein kinase 1, > 7.94 µM (inactive); in [15], > 7.94 µM (inactive); in experiment [16], > 5.01 µM (inactive); in experiment [17] it was > 6.31 µM (inactive). The values for the Ki in experiment [18] and in experiment [19] were > 3.98 µM (inactive) and > 10 µM (inactive), respectively.
